Laboratory results taken from paper PMC10808766, “Optimizing drug discovery for snakebite envenoming via a high-throughput phospholipase A2 screening platform” (Frontiers in Pharmacology, 2024).
Counter-ions that a name gives are not always drawn. Like-named read-outs stand apart in the source and are kept apart here.

Assays:
[1] = test system: PLA2 activity of D. russelii venom; experiment: Miniaturised 384-well colorimetric sPLA2 assay, D. russelii venom; type: biochemical, Daboia russelii; settings: for mean inhibition between screen and rescreen / Percent inhibition (PLA2) Rescreen: 10 µM; for mean inhibition between screen and rescreen: D. russelii venom; for EC50: 2-fold dilutions 10 µM to 5 pM, n = 4; for Percentage of Inhibition: Table S1, strong hits, value used for ligand efficiency metrics; for venom PLA2 activity in presence of compound: interleaved validation plates, 10 µM compound; for venom PLA2 activity in presence of compound / Percent inhibition (PLA2) Original / Percent inhibition (PLA2) Rescreen: 20 ng/well D. russelii venom; for Percent inhibition (PLA2) Original: primary screen, 10 µM drug, single point, relative to varespladib (100%) and DMSO (0%); for Percent inhibition (PLA2) Rescreen: rescreen of library hits, average of rescreen (2 ≤ n ≤ 4)
Procedure: Once hydrolysed, this substrate yields a free thiol group that interacts with 5,5′-dithio-bis-(2-nitrobenzoic acid) (DTNB), which is then converted into 2-nitro-5-thiobenzoic acid, causing a change in colour which is measurable at 405 nm. This conversion is measured kinetically and occurs at a linear rate until the substrate is exhausted, at which point the absorbance plateaus. Appropriate PLA2 concentrations are determined to fit within the linear range of the assay and a bee venom positive control is included with the kit. The assay is designed for 96-well plates and is quite costly at GBP£440/96 tests at the time of writing. We wanted to adapt and miniaturise this methodology for high-throughput screening of PLA2 activity and inhibition in 384-well plates to decrease cost and increase output, without compromising assay robustness.
Prior to conducting drug library screens, it was important to assess whether any drift or edge effects occurred in our setup. […] These consisted of full rows of these compounds in a repeating pattern (e.g., DMSO was in rows A, E, I, M, buffer was in rows B, F, J, N, etc.) on a 384-well plate. The assay was conducted as previously described using 20 ng/well of D. russelii venom across the plate. This was repeated three times on different days. To determine PLA2 activity under each of these conditions, the slope of each reaction was calculated by dividing the difference in absorbance at 405 nm between the first two time points in the linear range (tn–t0) by time (in min) where tn was 2 min 41 s in this case. These values were then inputted into the following equation: A µmol/min×mL=slope×0.045/4.6×0.01 where A represents venom activity, 0.045 is a factor representing the total volume of the assay (45 µL), 4.6 is the extinction coefficient of DTNB in 384-well plates, and 0.01 represents the sample size of 10 µL. This activity is then converted into specific activity by dividing the overall activity to the amount of venom in the reaction in micrograms.
Once in house this library was formatted as 11 × 384-well stock plates containing drugs at a concentration of 1 mM in DMSO. […] Assay-ready plates (ARPs) were made by transferring 0.5 µL from each well of the stock plates onto new 384-well plates, so that the layout of the ARP matched that of the stock plate. Venom was added at 10 µL per well (20 ng venom/well) across the plate, except for column 24 which received 10 µL of assay buffer. These latter wells containing control drugs and assay buffer served as the blank. The plates were incubated for 25 min at 37°C, then left to reach room temperature for 5 min. […] The data were analysed as above by calculating the slopes of all reactions on the plate. The average of the slopes of the blanks was then subtracted from each of these values, and specific activity calculated as described and expressed as µmol/min/mL/µg of venom.
These experiments were conducted and analysed as above, with n = 4 repeats per compound.

[2] = design: method as in Cerdá et al., 2003; settings: ref Cerdá et al., 2003; cited from earlier work
[3] = test system: PLA2 activity of C. durissus terrificus venom; experiment: Miniaturised 384-well colorimetric sPLA2 assay, C. durissus terrificus venom; settings: for EC50: read-out: EC50 (nM) C. durissus terrificus, 2-fold dilutions 10 µM to 5 pM, n = 4; for % inhibition: C. durissus terrificus: re-sourced drugs, 10 µM, 12.5 ng venom, varespladib normalised as 100%
Procedure: (§1) The final concentrations of DTNB and that of the substrate in the assay were 0.44 and 0.88 mM, respectively.
(§2) Then, 10 µL of snake venom at a concentration appropriate for the venom being screened was added to the plates using the VIAFLO384 and the plates were sealed with adhesive plate seals (Greiner BioOne), spun down and incubated for 25 min at 37°C. To prevent the degradation of any potential photolabile compounds, the plates were wrapped in aluminium foil prior to the incubation step. The plates were then taken out of the incubator and left to acclimatise at room temperature for 5 min.
(§3) To determine percentage inhibition relative to the positive and negative controls we applied the following formula: % inhibition= A− µ pos/µ neg− µ pos×100 where A represents specific activity as determined for each sample, and µ (pos) and µ (neg) represent the means of the specific activity in the positive and negative controls, respectively.
(§4) Drugs were plated as before, starting at 10 µM followed by 2-fold dilutions down to 5 pM, with each dilution series plated in quadruplicate. The data were analysed and expressed as described above and the percentage PLA2 inhibition values were used to generate EC50s in Graphpad Prism 9 using a nonlinear regression to fit the dose-response inhibition curve.

[4] = test system: PLA2 activity of N. nigricollis venom; experiment: Miniaturised 384-well colorimetric sPLA2 assay, N. nigricollis venom; settings: for % inhibition: N. nigricollis: re-sourced drugs, 10 µM, 5 ng venom, varespladib normalised as 100%
Procedure: as §1, §2, §3, §4

[5] = test system: PLA2 activity of D. russelii venom; experiment: Miniaturised 384-well colorimetric sPLA2 assay, D. russelii venom; type: biochemical, Daboia russelii; settings: re-sourced drugs, 10 µM, 30 ng venom, varespladib normalised as 100%
[6] = test system: PLA2 activity of B. arietans venom; experiment: Miniaturised 384-well colorimetric sPLA2 assay, B. arietans venom; settings: re-sourced drugs, 10 µM, 40 ng venom, varespladib normalised as 100%
Procedure: as §1, §2, §3

[7] = test system: PLA2 activity of C. atrox venom; experiment: Miniaturised 384-well colorimetric sPLA2 assay, C. atrox venom; settings: re-sourced drugs, 10 µM, 30 ng venom, varespladib normalised as 100%
Procedure: as §1, §2, §3

[8] = test system: PLA2 activity of N. naja venom; experiment: Miniaturised 384-well colorimetric sPLA2 assay, N. naja venom; settings: re-sourced drugs, 10 µM, 40 ng venom, varespladib normalised as 100%
Procedure: as §1, §2, §3

[9] = test system: secreted PLA2; design: method as in Yu et al., 1997; settings: ref Yu et al., 1997; cited from earlier work
[10] = design: method as in Liu et al., 1987; Coutinho et al., 2000; settings: dose of up to 20 mg/day, trialled in the 1970s in China; ref Liu et al., 1987; Coutinho et al., 2000; cited from earlier work
[11] = test system: non-small cell lung carcinoma cells; design: method as in Wang et al., 2018; settings: ref Wang et al., 2018; cited from earlier work
[12] = design: method as in Beaudoin, 1985; settings: ref Beaudoin, 1985; cited from earlier work
[13] = test system: PLA2 activity of C. durissus terrificus venom; design: method as in Cotrim et al., 2011; settings: ref Cotrim et al., 2011; cited from earlier work
[14] = read-out: EC50 (nM) D. russelii

Row | Compound | mean inhibition between screen and rescreen [1] | EC50 [3] | % inhibition: D. russelii [5] | % inhibition: B. arietans [6] | % inhibition: C. atrox [7] | % inhibition: C. durissus terrificus [3] | % inhibition: N. nigricollis [4] | % inhibition: N naja [8] | also measured
1 | CC(=O)O.Cc1cc2c(C(C)C)c(O)c(O)c(C=O)c2c(O)c1-c1c(C)cc2c(C(C)C)c(O)c(O)c(C=O)c2c1O | 89.2% | – | – | – | – | – | – | – | –
2 | O=C1O[C@H]2[C@@H]3OC(=O)c4cc(O)c(O)c(O)c4-c4c(O)c(O)c5oc(=O)c6c(c(O)c(O)c7oc(=O)c4c5c76)-c4c(cc(O)c(O)c4O)C(=O)OC[C@H]3OC(O)[C@@H]2OC(=O)c2cc(O)c(O)c(O)c2-c2c1cc(O)c(O)c2O (mixture of isomers) [Punicalagin, punicalagin] | 71.7% | 167 nM | above 72% | – | – | – | – | – | toxicity at high doses in rodents [2]: non-toxic; EC50 ([4]; read-out: EC50 (nM) N. nigricollis, 2-fold dilutions 10 µM to 5 pM, n = 4): 270 nM; EC50 [1, 14]: 559 nM; Percentage of Inhibition [1]: 83.82
3 | CC1(C)C2CCC1(C)C(O)C2 (racemic) [DL-Borneol] | 95.1% | – | did not re-test as a hit | did not re-test as a hit | did not re-test as a hit | did not re-test as a hit | did not re-test as a hit | did not re-test as a hit | –
4 | Cc1cc2c(C(C)C)c(O)c(O)c(C=O)c2c(O)c1-c1c(C)cc2c(C(C)C)c(O)c(O)c(C=O)c2c1O [Gossypol] | 76.6% | 69.1 nM | – | – | – | – | 64% | 30% | inhibition of secreted PLA2 activity [9]: reported inhibition of secreted PLA2 activity; efficacy and tolerability as male contraceptive [10]: efficacious and well tolerated; proliferation in non-small cell lung carcinoma cells [11]: inhibited proliferation; teratogenicity [12]: non-teratogenic; EC50 [1, 14]: 94.1 nM
5 | CNC(=O)[C@@H](NC(=O)[C@H](CC(C)C)[C@H](O)C(=O)NO)C(C)(C)C [Marimastat, marimastat] | – | – | – | – | – | – | – | – | venom PLA2 activity in presence of compound [1]: 6–8 μmol/min/mL/µg venom
6 | CC(=O)Oc1cc2c(s1)CCN(C(C(=O)C1CC1)c1ccccc1F)C2 (stereo not drawn) [Prasugrel (hydrochloride), prasugrel hydrochloride] | 83.9% | – | above 72% | – | – | – | – | – | Percentage of Inhibition [1]: 89.92
7 | O=c1c(O)c(-c2ccc(O)c(O)c2)oc2cc(O)cc(O)c12 [Quercetin (dihydrate), quercetin dihydrate] | – | – | 42% | < 15% | < 15% | ~65% | < 15% | < 15% | inhibition of enzymatic PLA2s from C. durissus terrificus venom [13]: previously shown to inhibit; Percent inhibition (PLA2) Original [1]: > 70%; Percent inhibition (PLA2) Rescreen [1]: failed to inhibit
8 | O=C(/C=C/c1ccc(O)c(O)c1/C=C/c1ccc(O)c(O)c1)O[C@H](Cc1ccc(O)c(O)c1)C(=O)O [Salvianolic acid A] | – | – | – | – | – | – | – | – | Percent inhibition (PLA2) Rescreen [1]: failed to reproducibly inhibit
9 | CCc1c(C(=O)C(N)=O)c2c(OCC(=O)O)cccc2n1Cc1ccccc1 [Varespladib] | – | 5.5 nM | reducing readings to control levels | reducing readings to control levels | reducing readings to control levels | reducing readings to control levels | reducing readings to control levels | reducing readings to control levels | inhibition of venom PLA2 activity (reaction rate) ([4]; 10 µM varespladib, elapid venom, Figure 1B): inhibited venom activity to baseline readings; inhibition of venom PLA2 activity (reaction rate) ([1]; 10 µM varespladib, viper venom, Figure 1B): inhibited venom activity to baseline readings; EC50 ([1]; text value in pM, read-out: EC50 against D. russelii venom): 0.5 nM; venom PLA2 activity in presence of compound [1]: dropped sharply; Percent inhibition (PLA2) Original [1]: > 99%
10 | Tannic acid | 92.1% | – | – | – | – | – | – | – | –
